We go through 103 compounds from ChEMBL document CHEMBL3507680, “University of Dundee, Gates Library screen for HepG2 cell viability”.

The structures appear in SMILES notation.

This data set can be described thus: Human HepG2 cell viability assay in 384 well format. The class given is toxicity, cell-based. Details: dose 125 nL, time 70.5 hour; cytotoxicity at 70.5 h: concentration not given beside the values. The settings on record: HepG2 cells, read-out: Inhibition.
With `CCOC(C)c1noc(CN2CCN(Cc3cccc(F)c3)CC2)n1` (stereo not drawn), the cytotoxicity at 70.5 h is -7.41%.

Consider `CCC(=O)N1CSCC1C(=O)N(C)CCc1ccccc1` (stereo not drawn), for which the cytotoxicity at 70.5 h came out at 7.14%. The figure for `O=C(CCNS(=O)(=O)c1cccnc1)N1CCCCC1` is 15.8%; for `O=C(c1ccc(-n2ccnc2)nn1)N1CCCC1CCc1ccccc1` (stereo not drawn) it is -19.5%. As to `CCc1nc(CN(C)C(=O)NC(C)c2cccc(NC(C)=O)c2)cs1` (stereo not drawn), the cytotoxicity at 70.5 h stood at 12.9%. Consider `COc1ccc(Nc2cc(C)nc(C)n2)cc1N1CCCC1=O`, for which the cytotoxicity at 70.5 h is -7.1%. With `CCc1nc(CN(C)C(=O)NCc2cccc(NC(C)=O)c2)cs1`, the cytotoxicity at 70.5 h is -10.2%. As to `c1csc(-c2noc(CN3CCc4c(ncn4C4CC4)C3)n2)c1`, the cytotoxicity at 70.5 h is -14.5%.

Regarding `CCCC(C#N)NC(=O)COC1CCCCC1` (stereo not drawn), the cytotoxicity at 70.5 h is 6.33%. The figure for `CN(CCc1ccncc1)C(=O)C1CSCN1C(=O)C(C)(C)C` (stereo not drawn) is -8.71%; for `c1ccc(-c2noc(CN3CCc4c(ncn4C4CC4)C3)n2)nc1` it is -6.92%. The figure for `Cc1ccc(OCC(=O)Nc2cnccc2SCCCO)cc1C` is 9.63%; for `COc1ccc(Nc2ccc(C#N)cn2)cc1N1CCCC1=O` it is 5.76%; for `CC(C)C1CN(S(=O)(=O)c2cccc(C#N)c2)CCS1` (stereo not drawn) it is 8.4%. Next, `Cc1ccc(-c2nc(CN3CCn4c(nnc4C4CC4)C3)no2)cc1`: 10.2%; `CN1CCC(NC(=O)CCCc2cc(Cl)sc2Cl)C1=O` (stereo not drawn): -9.29%. With `Cc1ccsc1CNC(=O)c1ccc2c(c1)CCC(=O)N2`, the cytotoxicity at 70.5 h was 16.1%. Next, `O=C1CCc2cc(C(=O)NCc3ccc(Cl)s3)ccc2N1`: -3.83%; `Cn1ccc(C(=O)NCCOc2ccc3c(c2)OCO3)cc1=O`: -6.82%; `CCOc1ccc(NC(C)C(=O)Nc2cc(C)no2)cc1` (stereo not drawn): -5.28%.

In the case of `Cc1ccc(S(=O)(=O)CCC(=O)NCc2nnc3n2CCC3)cc1`, the cytotoxicity at 70.5 h was -3.09%.

For `CCOc1ccc(CN(C)C(C)C(=O)Nc2cc(C)no2)cc1` (stereo not drawn), the cytotoxicity at 70.5 h is -5.64%. Next, `COc1ccc(OCCN(C)c2cc(C)nc(N)n2)cc1`: -6.24%; `NC(=O)CN(Cc1ccc(Br)cc1)C(=O)c1ccncc1`: -2.62%.

Consider `NC(=O)CN(Cc1ccc(Br)cc1)C(=O)c1cnccn1`, for which the cytotoxicity at 70.5 h was -5.94%. The figure for `NC(=O)CN(Cc1ccc(Br)cc1)C(=O)c1ccccn1` is -4.46%. Next, `CC(C)c1nn(C)c(N(C)C)c1CNC1CCCCNC1=O` (stereo not drawn): -4.04%; `Cc1nn(C)c(N2CCOCC2)c1CNC1CCCCNC1=O` (stereo not drawn): -5.43%; `Cc1nn(C)c(Oc2ccccc2)c1CNC1CCCCNC1=O` (stereo not drawn): -6.4%. Turning to `Cn1cc(C2CCCN2C(=O)CCn2c(=O)oc3ccccc32)cn1` (stereo not drawn), the cytotoxicity at 70.5 h was -2.42%. The figure for `Cc1cc(N(Cc2ccon2)S(C)(=O)=O)ccc1Br` is 17.3%; for `O=C(c1cc(-n2cccn2)ccn1)N(CC1CCC1)CC(F)(F)F` it is -3.45%. The figure for `Cn1ccc(C(=O)NCCOc2ccc3c(c2)CCC3)cc1=O` is -3.77%; for `Cc1cc(CNC2(c3ccccc3)CCCCC2)no1` it is -4.77%; for `O=C(c1cc(-n2cccn2)ccn1)N(CC(F)(F)F)C1CCCC1` it is -2.14%.

In the case of `CC(O)CN1CCC(CN(C)CC(=O)NC(C)C)CC1` (stereo not drawn), the cytotoxicity at 70.5 h is -1.64%. Next, `CC(O)CN1CCC(CN(C)CCC(=O)NC2CCCCC2)CC1` (stereo not drawn): 14.6%. Next, `Clc1ccc(CN2CCc3c(ncn3C3CC3)C2)c2ncccc12`: -2.64%; `Cc1cnn(CCNCc2c(C)nn(CCO)c2C)c1`: 2.83%; `CC(C)Cc1ncc(CNc2cnccc2CO)s1`: -1.94%. Next, `Cc1cc(C)n(Cc2cccc(C(=O)N(CCC#N)CCC#N)c2)n1`: -0.535%; `COC(=O)CCCN(C)C(=O)c1cc(F)cc2[nH]cnc12`: 23.5%; `COC(=O)NC1(C(=O)NCc2ccc(-c3ccn[nH]3)cc2)CCCC1`: -0.909%. As for `CCNC(=O)NC1CN(CC(=O)NCc2ccccc2C)C[C@@H]1OC` (stereo partly drawn), the cytotoxicity at 70.5 h stood at 1.44%. The figure for `COc1ccc(S(=O)(=O)N2CC(CC(=O)O)c3ccccc32)cc1` (stereo not drawn) is -0.927%; for `O=C(c1[nH]nc2c1CCCC2)N1CCC(OCCN2CCCCC2)C1` (stereo not drawn) it is -2.83%.

For the compound `CCNC(=O)NC1CN(Cc2ccccc2N(C)C)C[C@@H]1OC` (stereo partly drawn), the cytotoxicity at 70.5 h stood at 5.63%. Next, `CCC(C)(CC(=O)O)NC(=O)Cc1ccccc1F` (stereo not drawn): 26.6%; `CSC1(CNC(=O)NC(C)c2ccc(F)c(F)c2)CCOCC1` (stereo not drawn): -1.76%.

On to `CN(C)C(=O)Cc1ccccc1NCc1cccc(F)c1F`, for which the cytotoxicity at 70.5 h was 0.378%. The figure for `CCN(CCC(=O)OC)C(=O)c1cccc(Cn2nc(C)cc2C)c1` is 4.14%; for `COc1ccc(C)c2c1N(C(=O)c1cnc(C)s1)CCC2` it is -1.73%. Next, `O=S(=O)(CCSc1nccn1C1CC1)c1ccccc1`: -5.9%.

On to `CSC1(CNC(=O)NC(C)Cc2cccc(F)c2)CCOCC1` (stereo not drawn), for which the cytotoxicity at 70.5 h is 0.72%.

Take `Cc1csc(CNc2cnn(CC(C)C)c2)n1`: the cytotoxicity at 70.5 h was determined as 3.86%. Next, `Cc1c(C(=O)NS(=O)(=O)c2ccc(F)cc2)cnn1CC(C)C`: 20.5%; `CC(C)(C)OC(=O)N1CCCN1C(=O)c1cccc(F)c1F`: -5.84%; `CCC(C)(CC(=O)O)NC(=O)Cc1ccccc1Br` (stereo not drawn): -4.24%. The figure for `CCN(Cc1nc(C2CC2)no1)Cc1ccc(C#N)cc1F` is -3.69%; for `CC(NC1CCN(CCS(C)(=O)=O)CC1)c1cnn(C(C)C)c1` (stereo not drawn) it is -10.2%; for `COCc1noc(Cc2cc(Cl)c3c(c2)OCCCO3)n1` it is -4.84%. The figure for `COCC(C)NC(=O)CN1CCC(CO)CC1` (stereo not drawn) is -3.9%. As to `CC(Cn1cccn1)NC(=O)N(C)Cc1ccc(C(N)=O)cc1` (stereo not drawn), the cytotoxicity at 70.5 h amounted to 37.9%. Turning to `Cn1cc(NC(=O)c2cccc3cccnc23)ccc1=O`, the cytotoxicity at 70.5 h was -18.3%. The figure for `O=C1CCC(C(=O)Nc2ccc(=O)n(Cc3ccccc3Cl)c2)N1` (stereo not drawn) is -4.13%. The figure for `O=C1NCC(C(=O)Nc2ccc(=O)n(Cc3ccccc3Cl)c2)N1` (stereo not drawn) is -21.3%. The figure for `COc1ccc2c(OCC(=O)NCC(F)(F)F)ccnc2c1` is -15.8%; for `CN(C(=O)Nc1nncs1)C1CCN(c2ccccc2Cl)C1=O` (stereo not drawn) it is -21.1%. Regarding `COc1cc(F)c(S(=O)(=O)Nc2cnc(O)cc2C)cc1OC`, the cytotoxicity at 70.5 h was -11.9%.

Consider `Cc1cc(O)ncc1NS(=O)(=O)c1cccc(F)c1F`, for which the cytotoxicity at 70.5 h was -19.8%.

For the compound `CCC1C(=O)NCCN1c1nccc(C)n1` (stereo not drawn), the cytotoxicity at 70.5 h is 45.2%. Next, `c1cnn(CCNCc2ccc(N3CCCCC3)cc2)c1`: -13.6%; `CC(C)c1nsc(N2CCSCC2)n1`: -22.2%. Next, `CC(=O)N(Cc1noc(C)n1)C1CCN(CC2(O)CCCCC2)C1` (stereo not drawn): -27.3%; `O=C(Nc1cccc(OCc2ccc(F)cc2)c1)C1COCCO1` (stereo not drawn): -4.75%; `Cc1nn(CCO)c(C)c1CNC1CCc2c(Cl)cccc21` (stereo not drawn): 10.2%. `CCN(CC)CC(=O)NCCc1csc(N2CCCC2)n1`: the cytotoxicity at 70.5 h is -3.59%. The figure for `Cc1ccc(C2COCCN2C(=O)c2ccc(CN(C)C)cc2)o1` (stereo not drawn) is -6.21%; for `CCN(CC1CN(Cc2ncc(C)o2)CCO1)c1cccnn1` (stereo not drawn) it is -2.43%. As for `COc1cc(C(=O)N(CCC#N)Cc2ccccn2)cc(OC)c1C`, the cytotoxicity at 70.5 h is -6.63%. The figure for `O=C(c1cnn(-c2ccccc2F)c1)N1CCN(CCO)CC1` is -3.38%. Next, `CC(C)c1cccc(CSc2nnc(CN3CCCC3=O)o2)n1`: -8%; `CCN(CC1CN(CCc2ccccn2)CCO1)c1cccnn1` (stereo not drawn): -3.03%. The figure for `COCc1noc(C2(c3ccc(F)cc3)CCOCC2)n1` is 28.8%; for `O=C(NCC1(N2CCOCC2)CCSC1)Nc1ccc(F)cc1` (stereo not drawn) it is -6.94%; for `CCn1cc(NC(=O)NCC2(N3CCOCC3)CCSC2)cn1` (stereo not drawn) it is -1.94%. Take `O=C(NCc1nnc2n1CCC2)N(Cc1ccco1)C1CC1`: the cytotoxicity at 70.5 h was -10.5%. `COc1ccnc(N2CCN(C(=O)CCc3nccs3)CC2)n1`: the cytotoxicity at 70.5 h was -10.9%. Turning to `Cc1ccccc1C(=O)NCc1ccc(N2CCNC(=O)C2)c(F)c1`, the cytotoxicity at 70.5 h was -8%.

As for `CCCn1c(C)cc(C(=O)CN2C(=O)c3ccccc3CS2(=O)=O)c1C`, the cytotoxicity at 70.5 h was -10.8%. The figure for `Cc1cc(C)n(CC2CCCN2CCCS(=O)(=O)N(C)C)n1` (stereo not drawn) is -9.4%; for `CCc1nc(COc2ccc(OCc3cnn(C)c3)cc2)no1` it is -2.52%; for `COCc1noc(C2(c3ccc(Br)cc3)CCOCC2)n1` it is -10.1%. As for `O=C(NCc1nnc2n1CCCC2)N(Cc1ccccc1F)C1CC1`, the cytotoxicity at 70.5 h was -11.1%.

Turning to `CCc1noc(CNc2ccc(F)cc2OCC2CC2)n1`, the cytotoxicity at 70.5 h was -7.55%. Next, `CS(=O)(=O)CCC(=O)NC1(c2cccc(Br)c2)CC1`: -8.28%. Next, `CN(Cc1ccco1)Cc1ccccc1CNC(=O)c1cc[nH]n1`: -6.12%. `O=C(Nc1ccc(CCN2CCC(O)CC2)cc1)Nc1cccnc1`: the cytotoxicity at 70.5 h is -1.85%. The figure for `CC(c1ccc(Cl)cc1)N1CCN(CCNS(C)(=O)=O)CC1` (stereo not drawn) is -0.037%; for `c1ccc(-c2cc(CN3CCC(c4ccn[nH]4)CC3)on2)cc1` it is -7.56%. The figure for `CCN(CCC(F)(F)F)C(=O)Nc1cccc(N2CCOCC2)c1` is -7.71%; for `N#CCCCS(=O)(=O)N1CCCC1CC(=O)c1cccs1` (stereo not drawn) it is -6.62%. Consider `CCC(CNC(=O)c1ccc(Br)o1)N1CCc2ccccc2C1` (stereo not drawn), for which the cytotoxicity at 70.5 h was -7.37%.
